# In patent publication US20260209219A1, “SUBSTITUTED TETRAHYDROPYRROLO-PYRIDINONE COMPOUNDS AND THEIR USE IN TREATING MEDICAL CONDITIONS” (Karuna Therapeutics, Inc., priority 2022, published 2026):
# Columns and labels:
# [1] = target: T1, hM4 receptors (Homo sapiens, UniProt P08173); assay: Human M4 PAM pERK assay; format: cell-based; settings: CHO cells expressing hM4; with EC20 of acetylcholine (10 nM final)
# T1 construct: expressed in transfected cells; host or cells: CHO cells
# T1 sequence (P08173 1-479): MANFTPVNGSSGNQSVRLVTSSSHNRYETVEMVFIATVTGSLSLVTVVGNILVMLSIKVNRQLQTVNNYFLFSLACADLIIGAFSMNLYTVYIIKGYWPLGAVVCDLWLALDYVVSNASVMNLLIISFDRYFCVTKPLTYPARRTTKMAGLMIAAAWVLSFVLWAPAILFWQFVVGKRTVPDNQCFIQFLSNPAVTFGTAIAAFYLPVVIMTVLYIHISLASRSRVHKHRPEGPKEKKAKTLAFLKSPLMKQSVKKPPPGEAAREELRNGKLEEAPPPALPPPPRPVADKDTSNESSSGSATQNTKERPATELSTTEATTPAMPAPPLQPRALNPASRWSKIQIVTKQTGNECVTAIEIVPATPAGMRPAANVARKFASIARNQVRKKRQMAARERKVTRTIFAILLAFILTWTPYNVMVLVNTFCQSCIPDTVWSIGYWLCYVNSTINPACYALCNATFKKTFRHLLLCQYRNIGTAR
# Protocol: (§1) Chinese hamster ovary (CHO) cells expressing either hM4 or rM4 receptors were frozen in assay ready vials (5×10^6 cells/vial) after bulking-up in culture. The day before an assay, vial(s) were thawed and cells seeded in 384 well white proxiplates at 1000/well for hM4 cells and at 2000/well for rM4 cells, in 10 μL of growth media (Hams/F12 with glutamax and 10% FCS) and incubated overnight at 37° C./5% CO2.
# (§2) On the following morning, the growth media was removed by ‘flicking out’ over a bin, patting the inverted plate onto tissue, and then replacing with 10 μL of wash media (Hams/F12 with glutamax and 8 mM HEPES, NB: serum free). Then, the wash media was removed in the same way and replaced with 8 μL/well of the serum free media. Plates were then re-incubated for a further 4 hours at 37° C./5% CO2.
# (§3) Compounds for testing were solubilized to 10 mM in DMSO and compound addition plates, consisting of ten-point concentration response curves (CRC) in duplicate points (10 μM top concentration, ½ log dilution series), were prepared by acoustic dispensing and the compound management group.
# (§4) After the 4-hour incubation in serum free media, a 4 μL aliquot of the 3× compound solution containing an EC20 of acetylcholine (10 nM final concentration) was added to the cell plate using a 384 well plate to plate transfer. Then, the plate lid was replaced, and the cells incubated for 5 mins at 37° C./5% CO2. Following this final incubation, all cellular processes were stopped by the addition of 4 μL/well of lysis and blocking buffer and plates were incubated for 30 minutes at RT on an orbital shaker (gentle setting). Then, a final addition of 4 μL/well of antibody detection mix, containing both the Europium-Cryptate (donor) and d2 (acceptor) tagged detection components, was added followed by a further 2-hour incubation at RT, and then the plate was read using a TR-FRET (time resolved fluorescence resonance energy transfer) based protocol.
# [2] = target: T2, rM4 receptors (Rattus norvegicus, UniProt P08485); assay: Rat M4 PAM pERK assay; format: cell-based; settings: CHO cells expressing rM4; with EC20 of acetylcholine (10 nM final)
# T2 construct: expressed in transfected cells; host or cells: CHO cells
# T2 sequence (P08485 1-478): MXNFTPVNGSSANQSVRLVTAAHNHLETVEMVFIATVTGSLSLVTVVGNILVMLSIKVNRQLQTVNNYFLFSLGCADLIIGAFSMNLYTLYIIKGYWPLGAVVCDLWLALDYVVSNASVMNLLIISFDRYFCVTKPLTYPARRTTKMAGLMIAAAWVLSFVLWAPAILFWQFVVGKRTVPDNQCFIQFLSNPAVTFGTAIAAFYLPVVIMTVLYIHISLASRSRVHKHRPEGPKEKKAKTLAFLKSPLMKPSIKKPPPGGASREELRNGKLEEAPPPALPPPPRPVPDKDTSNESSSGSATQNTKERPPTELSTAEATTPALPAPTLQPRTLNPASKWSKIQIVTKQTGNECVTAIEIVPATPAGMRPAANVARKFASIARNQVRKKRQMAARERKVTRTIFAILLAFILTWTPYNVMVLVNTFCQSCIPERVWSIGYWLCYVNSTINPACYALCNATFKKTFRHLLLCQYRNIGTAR
# Protocol: as §1, §2, §3, §4
# [3] = target: T3, human M4 receptor (Homo sapiens, UniProt P08173); assay: M4 GTPγS PAM assay; format: biochemical; settings: membranes of CHO-K1 cells stably expressing human M4; EC20 acetylcholine 40 nM
# T3 construct: expressed in transfected cells; host or cells: CHO-K1 cells (membrane preparation)
# T3 sequence (P08173 1-479): T1 sequence (P08173 1-479)
# Protocol: The M4 GTPγS PAM method was used. Membranes were prepared for GTPgS binding assays from CHO-K1 cells stably expressing human M4 receptor. Briefly, cells were grown in 5-layer cell culture flasks. Cells were washed with 50 mL of PBS and then dissociated with 0.05% trypsin. Dissociated cells were then collected by centrifugation at 650×g for 8 minutes at 4° C. Pellets were washed again in PBS by centrifugation and resuspended in 30 mL of 20 mM HEPES, 10 mM EDTA, pH 7.4. After sitting on ice for 30 min, membranes were collected by centrifugation at 50000×g for 15′ at 4° C., resuspended in 30 mL of 20 mM HEPES, 0.1 mM EDTA, pH 7.4 and collected again by centrifugation. Pellets were then washed twice by centrifugation in 30 mL of 20 mM HEPES, pH 7.4, and stored at −80° C. until the day of the assay. On the day of the assay, pellets were thawed on ice and resuspended in 1 mL of 20 mM HEPES, pH 7.4, 10 mM MgCl2, 100 mM NaCl using dounce homogenization. Membrane protein concentration is determined by BCA protein assay (Promega, Madison, WI) according to Promega guidelines.
# On the day of the assay, serial dilutions of test PAM compounds were brought up in assay buffer (20 mM HEPES, 10 mM MgCl2, 100 mM NaCl) at 4× final assay concentration. […] of membrane homogenates (containing […] of membrane protein) were prepared in assay buffer supplemented with GDP at 4× final assay concentration (final assay concentration of GDP is 5 μM for M2 and 0.1 μM for M4) and dispensed into 96 well polypropylene, U-bottom Greiner plates. […] of vehicle or test PAM compound at 4× of final assay concentration diluted in the assay buffer were added to membrane and plates are incubated for 10-15 minutes at room temperature with gentle shaking. Then, […] of EC20 acetylcholine in assay buffer at 4× final assay concentration was added to assay plates (EC20 final assay concentrations was 40 nM for human M4).
# Plates were then incubated, with shaking, for an additional 10-15 minutes. 25 mL of 0.4 nM ^35S-GTP (Perkin Elmer, Waltham, MA) in assay buffer was added to assay mixtures. The binding reaction is left on the shaker for 1 hour at room temperature. Membranes in assay reactions were then transferred to GF/C filter plates (Unifilter, Perkin Elmer) and washed three times using a FilterMate Harvester (Perkin Elmer) with cold assay buffer containing no GDP. Filter plates were then dried at 40° C. overnight followed by the addition of […] of Beta Plate Scintillation liquid. Plates are top and bottom sealed before being read on TopCount scintillation counter (Perkin Elmer, Waltham, MA).
SMILES,EC50 [1] [nM],EC50 [2] [nM],EC50 [3] [nM]
Cc1cc(=O)n(C)c2c1CN(C(=O)CC1CC1)C2 [Compound I-10],500 to 2000,> 2000,500 to 2000
Cc1cc(=O)n(C)c2c1CN(C(=O)CC1CC1c1ccc(C(F)(F)F)nc1)C2 (stereo not drawn) [Compound I-3],500 to 2000,500 to 2000,500 to 2000
"Cc1cc(=O)n(C)c2c1CN(C(=O)CC1CC1c1cccc(C3COC3)c1)C2 (single isomer, unassigned) [Compound I-13]",> 2000,> 2000,> 2000
"Cc1cc(=O)n(C)c2c1CN(C(=O)CC1CC1c1ccc(C(F)(F)F)nc1)C2 (single isomer, unassigned) [Compound I-5]",100 to 500,< 100,500 to 2000
Cc1cc(=O)n(C)c2c1CN(C(=O)CC1CC1c1cccc(C3COC3)c1)C2 (stereo not drawn) [Compound I-12],100 to 500,500 to 2000,> 2000

# Results, then the compound that gave them:
EC50 [1] [nM],EC50 [2] [nM],EC50 [3] [nM],SMILES
< 100,< 100,< 100,"Cc1c2c(n(C)c(=O)c1F)CN(C(=O)CC1CC1c1cc(F)cc(F)c1)C2 (single isomer, unassigned) [Compound I-27]"
< 100,100 to 500,< 100,Cc1c2c(n(C)c(=O)c1C)CN(C(=O)CC1CC1c1cccc(F)c1F)C2 (stereo not drawn) [Compound I-24]
500 to 2000,> 2000,100 to 500,"Cc1c2c(n(C)c(=O)c1F)CN(C(=O)CC1CC1c1ccc(C(F)(F)F)cc1)C2 (single isomer, unassigned) [Compound I-25, 3-Fluoro-1,4-dimethyl-6-([trans-2-(2-(4-(trifluoromethyl)phenyl)cyclopropyl)]acetyl)-1,5,6,7-tetrahydro-2/I-pyrrolo[3,4-b]pyridin-2-one]"
> 2000,> 2000,500 to 2000,"Cc1c2c(n(C)c(=O)c1C)CN(C(=O)CC1CC1c1cc(F)cc(F)c1)C2 (single isomer, unassigned) [Compound I-22]"
100 to 500,100 to 500,< 100,"COc1c2c(n(C)c(=O)c1C)CN(C(=O)CC1CC1c1ccc(C(F)(F)F)cc1)C2 (single isomer, unassigned) [Compound I-29, 4-Methoxy-1,3-dimethyl-6-([trans-2-(2-(4-(trifluoromethyl)phenyl)cyclopropyl)]acetyl)-1,5,6,7-tetrahydro-2H-pyrrolo[3,4-b]pyridin-2-one]"
